From the supplement of paper PMC8149375

Assays:
Settings in all cases: treatment: drug + dasatinib (fixed dose, not stated); 5 days
CAKI-1 [1] = assay: GI50 of drug in presence of dasatinib; higher = less potent
Method: (§1)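 Primary HTS combination arm: 8 RCC cell lines treated with 8 doses (up to 10 uM) of each library drug plus a fixed dose of dasatinib (dose not stated) for 5 days; viability read by CellTiter-Glo and normalised to DMSO. GI50 was fitted with XLfit, AUC is the area under the dose-response curve, and minimum viability is the lowest fraction of DMSO viability across doses.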

UO-31 [2] = assay: as above
Method: as §1

ACHN [3] = assay: as above
Method: as §1

769-P [4] = assay: as above
Method: as §1

A498 [5] = assay: as above
Method: as §1

TK-10 [6] = assay: as above
Method: as §1

SN12C [7] = assay: as above
Method: as §1

CAKI-1 [8] = assay: AUC of dose-response viability curve, drug + dasatinib, normalised to DMSO (arbitrary (AUC of normalised viability)); higher = less growth inhibition
Method: as §1

UO-31 [9] = assay: as above
Method: as §1

ACHN [10] = assay: as above
Method: as §1

769-P [11] = assay: as above
Method: as §1

A498 [12] = assay: as above
Method: as §1

786-O [13] = assay: as above
Method: as §1

TK-10 [14] = assay: as above
Method: as §1

SN12C [15] = assay: as above
Method: as §1

CAKI-1 [16] = assay: minimum viability across doses, drug + dasatinib, relative to DMSO (fraction); higher = less growth inhibition
Method: as §1

UO-31 [17] = assay: as above
Method: as §1

ACHN [18] = assay: as above
Method: as §1

769-P [19] = assay: as above
Method: as §1

A498 [20] = assay: as above
Method: as §1

786-O [21] = assay: as above
Method: as §1

TK-10 [22] = assay: as above
Method: as §1

SN12C [23] = assay: as above
Method: as §1

786-O [24] = assay: GI50 of drug in presence of dasatinib; higher = less potent
Method: as §1

Row | SMILES | GI50 of drug (ACHN [3]) | GI50 of drug (786-O [24]) | GI50 of drug (CAKI-1 [1]) | GI50 of drug (UO-31 [2]) | GI50 of drug (769-P [4]) | GI50 of drug (A498 [5]) | GI50 of drug (TK-10 [6]) | GI50 of drug (SN12C [7]) | AUC of dose-response viability curve (CAKI-1 [8]) | AUC of dose-response viability curve (UO-31 [9]) | AUC of dose-response viability curve (ACHN [10]) | AUC of dose-response viability curve (769-P [11]) | AUC of dose-response viability curve (A498 [12]) | AUC of dose-response viability curve (786-O [13]) | AUC of dose-response viability curve (TK-10 [14]) | AUC of dose-response viability curve (SN12C [15]) | minimum viability across doses (CAKI-1 [16]) | minimum viability across doses (UO-31 [17]) | minimum viability across doses (ACHN [18]) | minimum viability across doses (769-P [19]) | minimum viability across doses (A498 [20]) | minimum viability across doses (786-O [21]) | minimum viability across doses (TK-10 [22]) | minimum viability across doses (SN12C [23])
1 | Cc1ccc(NC(=O)c2cccc(N(C)C)c2)cc1NC(=O)c1ccc(O)cc1 + Cc1nc(Nc2ncc(C(=O)Nc3c(C)cccc3Cl)s2)cc(N2CCN(CCO)CC2)n1 [dasatinib] | > 10000 nM | – | > 10000 nM | > 10000 nM | > 10000 nM | > 10000 nM | > 10000 nM | > 10000 nM | 2.43 | 4.5 | 2.1 | 2.41 | 3.67 | 2 | 2.37 | 2.52 | 0.65 | 1.02 | 0.54 | 0.639 | 0.932 | 0.388 | 0.609 | 0.69
2 | Cn1cnc2c(F)c(Nc3ccc(Br)cc3Cl)c(C(=O)NOCCO)cc21 [AZD6244 (Selumetinib)] + Cc1nc(Nc2ncc(C(=O)Nc3c(C)cccc3Cl)s2)cc(N2CCN(CCO)CC2)n1 [dasatinib] | 83.2 nM | 1660 nM | 646 nM | – | 1200 nM | – | 3540 nM | 1070 nM | 1.77 | 2.32 | 1.64 | 2.1 | 2.11 | 2.26 | 2.38 | 1.84 | 0.129 | 0.143 | 0.343 | 0.294 | 0.301 | 0.507 | 0.477 | 0.0911
3 | Cc1cc(C(=O)NOCCO)c(Nc2ccc(I)cc2F)n(C)c1=O [AZD8330] + Cc1nc(Nc2ncc(C(=O)Nc3c(C)cccc3Cl)s2)cc(N2CCN(CCO)CC2)n1 [dasatinib] | < 3 nM | 54.5 nM | 56.5 nM | – | 69.4 nM | – | 108 nM | 60.1 nM | 1.21 | 1.9 | 0.912 | 1.49 | 1.77 | 1.67 | 1.64 | 1.5 | 0.102 | 0.0965 | 0.18 | 0.219 | 0.318 | 0.323 | 0.262 | 0.212
4 | CNC(=O)CN1CCC(Oc2cc3c(Nc4cccc(Cl)c4F)ncnc3cc2OC)CC1 [AZD8931] + Cc1nc(Nc2ncc(C(=O)Nc3c(C)cccc3Cl)s2)cc(N2CCN(CCO)CC2)n1 [dasatinib] | 11.4 nM | – | 2990 nM | 4660 nM | 135 nM | 1040 nM | 477 nM | > 10000 nM | 2.11 | 2.96 | 1.24 | 1.69 | 2.24 | 1.88 | 1.99 | 2.3 | 0.332 | 0.344 | 0.233 | 0.15 | 0.284 | 0.262 | 0.277 | 0.569
5 | Cc1ccc(NC(=O)c2ccc(CN3CCN(C)CC3)cc2)cc1Nc1nccc(-c2cccnc2)n1 [Imatinib (Gleevec)] + Cc1nc(Nc2ncc(C(=O)Nc3c(C)cccc3Cl)s2)cc(N2CCN(CCO)CC2)n1 [dasatinib] | > 10000 nM | – | 8890 nM | > 10000 nM | > 10000 nM | > 10000 nM | > 10000 nM | > 10000 nM | 2.22 | 3.84 | 2.06 | 2.43 | 3.24 | 1.67 | 2.45 | 2.55 | 0.491 | 0.883 | 0.523 | 0.586 | 0.817 | 0.336 | 0.624 | 0.68
6 | COc1cc(Nc2ncc3c(n2)-c2ccc(Cl)cc2C(c2c(F)cccc2OC)=NC3)ccc1C(=O)O [MLN8237 (Alisertib)] + Cc1nc(Nc2ncc(C(=O)Nc3c(C)cccc3Cl)s2)cc(N2CCN(CCO)CC2)n1 [dasatinib] | 25 nM | 60.2 nM | 74.9 nM | 5320 nM | 95.7 nM | – | 2740 nM | 331 nM | 1.41 | 3.06 | 1.37 | 1.61 | 2.41 | 1.44 | 2.39 | 1.89 | 0.0592 | 0.374 | 0.16 | 0.231 | 0.353 | 0.145 | 0.392 | 0.353
7 | CNC(=O)c1cc(Oc2ccc(NC(=O)Nc3ccc(Cl)c(C(F)(F)F)c3)c(F)c2)ccn1 [Regorafenib (BAY 73-4506)] + Cc1nc(Nc2ncc(C(=O)Nc3c(C)cccc3Cl)s2)cc(N2CCN(CCO)CC2)n1 [dasatinib] | 3320 nM | – | 2980 nM | 4410 nM | 4040 nM | 2670 nM | 5850 nM | 7180 nM | 2.24 | 2.77 | 2.05 | 2.3 | 3.1 | 2.26 | 2.45 | 2.47 | 0.125 | 0.122 | 0.153 | 0.37 | 0.415 | 0.471 | 0.415 | 0.434
8 | CS(=O)(=O)O.O=C(Nc1cccc(Cl)c1)Nc1ncc(CCNc2ncnc3ccsc23)s1 [SNS-314] + Cc1nc(Nc2ncc(C(=O)Nc3c(C)cccc3Cl)s2)cc(N2CCN(CCO)CC2)n1 [dasatinib] | 61.8 nM | 48.1 nM | 41.5 nM | 6020 nM | 155 nM | – | 3780 nM | 634 nM | 1.38 | 3.06 | 1.48 | 1.74 | 2.61 | 1.54 | 2.41 | 1.97 | 0.107 | 0.372 | 0.144 | 0.217 | 0.442 | 0.123 | 0.362 | 0.259
9 | CC(C)(O)CC(=O)NCCn1ccc2ncnc(Nc3ccc(Oc4cccc(C(F)(F)F)c4)c(Cl)c3)c21 [TAK-285] + Cc1nc(Nc2ncc(C(=O)Nc3c(C)cccc3Cl)s2)cc(N2CCN(CCO)CC2)n1 [dasatinib] | 12.7 nM | – | 2350 nM | 6240 nM | 1700 nM | > 10000 nM | 568 nM | > 10000 nM | 2.15 | 3.97 | 1.28 | 2.18 | 3.25 | 1.8 | 1.99 | 2.44 | 0.311 | 0.224 | 0.172 | 0.22 | 0.83 | 0.338 | 0.346 | 0.556

Further lines, with some results ahead:

Row | GI50 of drug (ACHN [3]) | GI50 of drug (786-O [24]) | SMILES | GI50 of drug (CAKI-1 [1]) | GI50 of drug (UO-31 [2]) | GI50 of drug (769-P [4]) | GI50 of drug (A498 [5]) | GI50 of drug (TK-10 [6]) | GI50 of drug (SN12C [7]) | AUC of dose-response viability curve (CAKI-1 [8]) | AUC of dose-response viability curve (UO-31 [9]) | AUC of dose-response viability curve (ACHN [10]) | AUC of dose-response viability curve (769-P [11]) | AUC of dose-response viability curve (A498 [12]) | AUC of dose-response viability curve (786-O [13]) | AUC of dose-response viability curve (TK-10 [14]) | AUC of dose-response viability curve (SN12C [15]) | minimum viability across doses (CAKI-1 [16]) | minimum viability across doses (UO-31 [17]) | minimum viability across doses (ACHN [18]) | minimum viability across doses (769-P [19]) | minimum viability across doses (A498 [20]) | minimum viability across doses (786-O [21]) | minimum viability across doses (TK-10 [22]) | minimum viability across doses (SN12C [23])
10 | > 10000 nM | – | O=C1NC(=O)C(c2ccccc2[N+](=O)[O-])=C1Nc1ccc(O)c(Cl)c1 + Cc1nc(Nc2ncc(C(=O)Nc3c(C)cccc3Cl)s2)cc(N2CCN(CCO)CC2)n1 [dasatinib] | > 10000 nM | > 10000 nM | > 10000 nM | > 10000 nM | > 10000 nM | > 10000 nM | 2.31 | 3.6 | 2.02 | 2.42 | 3.1 | 1.73 | 2.42 | 2.5 | 0.591 | 0.748 | 0.506 | 0.629 | 0.789 | 0.339 | 0.646 | 0.67
11 | 8.4 nM | 21.7 nM | CC(=O)Nc1cccc(-n2c(=O)n(C3CC3)c(=O)c3c(Nc4ccc(I)cc4F)n(C)c(=O)c(C)c32)c1 + Cc1nc(Nc2ncc(C(=O)Nc3c(C)cccc3Cl)s2)cc(N2CCN(CCO)CC2)n1 [dasatinib] | 54.2 nM | 159 nM | 217 nM | – | 78.7 nM | 86.2 nM | 1.29 | 1.88 | 1.2 | 1.68 | 1.96 | 1.48 | 1.58 | 1.58 | 0.0991 | 0.0585 | 0.216 | 0.196 | 0.306 | 0.321 | 0.235 | 0.243
12 | 10.5 nM | 89.8 nM | O=C(NC[C@H](O)CO)c1ccncc1Nc1ccc(I)cc1F + Cc1nc(Nc2ncc(C(=O)Nc3c(C)cccc3Cl)s2)cc(N2CCN(CCO)CC2)n1 [dasatinib] | 139 nM | 563 nM | 455 nM | – | 296 nM | 307 nM | 1.52 | 2.33 | 1.28 | 1.81 | 2.28 | 1.87 | 1.9 | 1.9 | 0.0863 | 0.0714 | 0.216 | 0.212 | 0.31 | 0.394 | 0.203 | 0.227
13 | 81.4 nM | – | C=CC(=O)N1CCC[C@@H](n2nc(-c3ccc(Oc4ccccc4)cc3)c3c(N)ncnc32)C1 + Cc1nc(Nc2ncc(C(=O)Nc3c(C)cccc3Cl)s2)cc(N2CCN(CCO)CC2)n1 [dasatinib] | 3280 nM | 8830 nM | 212 nM | > 10000 nM | 264 nM | > 10000 nM | 2.18 | 3.83 | 1.61 | 1.72 | 4.62 | 2 | 1.83 | 2.28 | 0.19 | 0.194 | 0.295 | 0.124 | 0.927 | 0.435 | 0.189 | 0.496
14 | 21.2 nM | 10.7 nM | C[C@@H](Oc1cc(-n2cnc3ccc(CN4CCN(C)CC4)cc32)sc1C(N)=O)c1ccccc1C(F)(F)F + Cc1nc(Nc2ncc(C(=O)Nc3c(C)cccc3Cl)s2)cc(N2CCN(CCO)CC2)n1 [dasatinib] | 38.1 nM | 77.4 nM | 31 nM | – | 265 nM | 89.1 nM | 1.33 | 1.32 | 1.22 | 1.14 | 1.97 | 0.653 | 2.01 | 1.62 | 0.0912 | 0.00496 | 0.0897 | 0.0347 | 0.384 | 0.00468 | 0.171 | 0.155
